# Experimental data taken from ChEMBL document CHEMBL5523679, “Discovery of 1,2,3-triazole incorporated indole-piperazines as potent antitubercular agents: Design, synthesis, in vitro biological evaluation, molecular docking and ADME studies” (Bioorg Med Chem, 2024).
# Key:
# [1] = test system: Mycobacterium tuberculosis; assay: Antimycobacterial activity against Mycobacterium tuberculosis H37Rv assessed as bacterial growth inhibition by microplate Alamar blue assay; assay type: functional
# Escherichia coli [2] = assay: Antibacterial activity against Escherichia coli assessed as inhibition zone at 75 ug/ml by diffusion method; assay type: functional; settings: read-out: IZ
# Escherichia coli [3] = assay: Antibacterial activity against Escherichia coli assessed as inhibition zone at 50 ug/ml by diffusion method; assay type: functional; settings: read-out: IZ
# Escherichia coli [4] = assay: Antibacterial activity against Escherichia coli assessed as inhibition zone at 25 ug/ml by diffusion method; assay type: functional; settings: read-out: IZ
# Staphylococcus aureus [5] = assay: Antibacterial activity against Staphylococcus aureus assessed as inhibition zone at 75 ug/ml by diffusion method; assay type: functional; settings: read-out: IZ
# Staphylococcus aureus [6] = assay: Antibacterial activity against Staphylococcus aureus assessed as inhibition zone at 50 ug/ml by diffusion method; assay type: functional; settings: read-out: IZ
# Staphylococcus aureus [7] = assay: Antibacterial activity against Staphylococcus aureus assessed as inhibition zone at 25 ug/ml by diffusion method; assay type: functional; settings: read-out: IZ
# Pseudomonas aeruginosa [8] = assay: Antibacterial activity against Pseudomonas aeruginosa assessed as inhibition zone at 75 ug/ml by diffusion method; assay type: functional; settings: read-out: IZ
# [9] = Cytotoxicity against African green monkey Vero cells measured after 72 hrs by MTT assay; assay type: toxicity, cell-based; settings: chlorocebus sabaeus
# [10] = Selectivity index, ratio of CC50 for African green monkey Vero cells to MIC for Mycobacterium tuberculosis H37Rv; assay type: toxicity; settings: read-out: Selectivity Index
# [11] = Cytotoxicity against African green monkey Vero cells assessed as inhibition of cell growth at 6.25 ug/ml measured after 72 hrs by MTT assay relative to control; assay type: toxicity, cell-based; settings: chlorocebus sabaeus, at 6.25 µg/mL
# Pseudomonas aeruginosa [12] = assay: Antibacterial activity against Pseudomonas aeruginosa assessed as inhibition zone at 50 ug/ml by diffusion method; assay type: functional; settings: read-out: IZ
# Pseudomonas aeruginosa [13] = assay: Antibacterial activity against Pseudomonas aeruginosa assessed as inhibition zone at 25 ug/ml by diffusion method; assay type: functional; settings: read-out: IZ
Compound,MIC [1] [µM],zone of inhibition at 75 µg/mL (Escherichia coli [2]) [mm],zone of inhibition at 50 µg/mL (Escherichia coli [3]) [mm],zone of inhibition at 25 µg/mL (Escherichia coli [4]) [mm],zone of inhibition at 75 µg/mL (Staphylococcus aureus [5]) [mm],zone of inhibition at 50 µg/mL (Staphylococcus aureus [6]) [mm],zone of inhibition at 25 µg/mL (Staphylococcus aureus [7]) [mm],zone of inhibition at 75 µg/mL (Pseudomonas aeruginosa [8]) [mm],CC50 at 72 h [9] [µg/mL],selectivity ratio [10],"inhibition at 72 h, 6.25 ug/ml [11] [%]",zone of inhibition at 50 µg/mL (Pseudomonas aeruginosa [12]) [mm],zone of inhibition at 25 µg/mL (Pseudomonas aeruginosa [13]) [mm]
O=C(CCc1cn(Cc2cn(Cc3ccc(F)cc3)nn2)c2ccccc12)N1CCN(C(=O)c2ccc(F)cc2)CC1,2.8,23,20,15,20,15,13,13,1200,750,11.7,,
O=C(CCc1cn(Cc2ccc(F)cc2)c2ccccc12)N1CCN(C(=O)c2ccc(F)cc2)CC1,12.8,18,15,,23,17,13,13,619,198,31.9,,
O=C(CCc1cn(Cc2cn(Cc3ccc(F)cc3)nn2)c2ccccc12)N1CCN(C(=O)c2cccnc2Cl)CC1,5.3,25,23,13,18,15,10,13,946,303,10.1,10,
O=C(CCc1cn(Cc2cn(Cc3ccc(F)cc3)nn2)c2ccccc12)N1CCN(C(=O)c2ccnc(Cl)c2)CC1,2.7,20,18,,18,13,13,15,1080,673,11.8,13,10
Cc1ccc(C(=O)N2CCN(C(=O)CCc3cn(Cc4cn(Cc5ccc(F)cc5)nn4)c4ccccc34)CC2)cc1,5.5,25,20,15,20,13,13,13,1320,424,9.4,10,
Cc1ccc(S(=O)(=O)N2CCN(C(=O)CCc3c[nH]c4ccccc34)CC2)cc1,> 120,18,15,13,15,13,10,18,,,,15,10
Cc1ccc(S(=O)(=O)N2CCN(C(=O)CCc3cn(Cc4cn(Cc5ccc(F)cc5)nn4)c4ccccc34)CC2)cc1,20.8,20,20,15,20,15,12,15,,,,13,9
O=C(CCc1cn(Cc2cn(Cc3ccc(F)cc3)nn2)c2ccccc12)N1CCN(S(=O)(=O)c2ccc(Cl)cc2)CC1,20.1,24,20,15,20,13,10,18,,,,15,10
O=C(Cc1cn(Cc2ccc(F)cc2)c2ccccc12)N1CCN(S(=O)(=O)c2ccccc2)CC1,50.8,15,13,,20,18,15,18,,,,15,10
O=C(CCc1cn(Cc2cn(Cc3ccc(F)cc3)nn2)c2ccccc12)N1CCN(C(=O)c2cccnc2)CC1,2.9,25,23,15,18,15,6,10,1170,732,11.7,,
O=C(CCc1cn(Cc2ccc(F)cc2)c2ccccc12)N1CCN(C(=O)c2ccc(Cl)cc2)CC1,12.4,18,15,,23,19,13,13,385,61.6,36.4,10,
O=C(CCc1c[nH]c2ccccc12)N1CCN(S(=O)(=O)c2ccc(F)cc2)CC1,> 120,17,15,13,20,15,13,18,,,,15,13
Cc1ccc(S(=O)(=O)N2CCN(C(=O)Cc3c[nH]c4ccccc34)CC2)cc1,> 120,18,15,12,15,12,10,15,,,,13,10
O=C(Cc1cn(Cc2ccc(F)cc2)c2ccccc12)N1CCN(C(=O)c2ccc(F)cc2)CC1,13.2,18,15,,21,18,15,13,448,71.7,33.8,10,
Cc1ccc(C(=O)N2CCN(C(=O)CCc3cn(Cc4ccc(F)cc4)c4ccccc34)CC2)cc1,51.7,17,15,,20,18,13,18,,,,15,10
O=C(CCc1cn(Cc2ccc(F)cc2)c2ccccc12)N1CCN(S(=O)(=O)c2ccccc2)CC1,49.4,14,12,,20,18,15,18,,,,15,10
Cc1ccc(C(=O)N2CCN(C(=O)Cc3cn(Cc4ccc(F)cc4)c4ccccc34)CC2)cc1,26.6,15,13,,20,15,10,18,,,,15,10
O=C(Cc1c[nH]c2ccccc12)N1CCN(S(=O)(=O)c2ccccc2)CC1,> 120,17,15,13,18,15,13,18,,,,15,13
O=C(CCc1cn(Cc2cn(Cc3ccc(F)cc3)nn2)c2ccccc12)N1CCN(C(=O)c2ccc(Cl)cc2)CC1,10.7,23,20,13,18,15,6,15,986,158,7.9,12,
O=C(CCc1cn(Cc2cn(Cc3ccc(F)cc3)nn2)c2ccccc12)N1CCN(S(=O)(=O)c2ccc(F)cc2)CC1,2.6,25,20,13,20,18,13,15,1700,1060,11.9,10,
